One test deals with D3R (Homo sapiens, UniProt P35462). Briefly: Radioligand competition binding at human D3R ([3H]N-methylspiperone, HEK293 membranes). Also noted: expressed in transfected cells; host or cells: HEK293. To be noted: selectivity.
In a further test the target is T1, D4R (Homo sapiens, UniProt P21917).
T1 sequence (P21917 1-419): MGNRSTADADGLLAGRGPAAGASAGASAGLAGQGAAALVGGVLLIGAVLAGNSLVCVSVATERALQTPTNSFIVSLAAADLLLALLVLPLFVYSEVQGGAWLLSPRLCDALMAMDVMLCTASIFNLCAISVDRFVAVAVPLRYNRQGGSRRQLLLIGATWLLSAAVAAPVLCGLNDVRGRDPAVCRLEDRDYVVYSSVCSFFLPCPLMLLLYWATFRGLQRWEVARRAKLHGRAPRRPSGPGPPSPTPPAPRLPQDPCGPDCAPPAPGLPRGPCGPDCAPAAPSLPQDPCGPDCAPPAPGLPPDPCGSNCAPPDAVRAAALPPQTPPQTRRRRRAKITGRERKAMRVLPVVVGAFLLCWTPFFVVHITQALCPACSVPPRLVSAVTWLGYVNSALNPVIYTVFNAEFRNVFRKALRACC
Kind of test: D4 adenylate cyclase/cAMP functional assay (HEK-D4.4-AC1 cells). More on the design: expressed in transfected cells; host or cells: HEK-D4.4-AC1 cells. The class given is cell-based. As to conditions: for EC50 / % stimul., D4 adenylate cyclase: agonist mode; for EC50: inhibition of forskolin-stimulated cAMP formation; for % stimul., D4 adenylate cyclase: normalized to maximal effect of quinpirole; for functional behavior at D4R: in words. As to the method:
HEK-D4.4-AC1 cells are grown to confluency on […]. The cells are plated at a density of 375,000 cells per well in 48-well plates in DMEM supplemented with 5% FetalClone, 5% BCS, and pen-strep. After ∼36 h, the medium is changed to DMEM supplemented with 10% charcoal-stripped FetalClone and pen-strep. The medium is removed ∼18 h later. For agonist assays, 0.8 mL of EBSS (116 mM NaCl, 22 mM glucose, 15 mM HEPES, 8.7 mM NaH2PO4, 5.4 mM KCl, 1.3 mM CaCl2, 1.2 mM MgSO4, 1 mM ascorbic acid, 0.5 mM IBMX [3-isobutyl-1-methyl-xanthine], and 2% BCS, pH 7.4 at 37 °C) is added, cells are incubated for 20 min, agonists are added, and, after a 20 min incubation, 10 μM of forskolin is added in a final volume of 1 mL. For antagonists, 0.7 mL of EBSS is added, cells are incubated for 10 min, antagonists are added, cells are incubated for 10 min, 2 nM quinpirole is added, and after a 20 min incubation, 10 μM forskolin is added in a final volume of 1 mL. For all conditions, after a 20 min incubation with forskolin, the reaction is terminated by aspiration of the buffer, and 0.1 mL of trichloroacetic acid is added. The plates are incubated for 2 h on a rotator. Adenylate cyclase activity is measured using a cyclic AMP EIA kit (Cayman). Aliquots (9 μL) of each well are diluted to 200 μL with EIA buffer from the kit, and 50 μL of dilution is added to the EIA plate. After addition of tracer and monoclonal antibody, the EIA plates are incubated for 18 h at 4 °C. The reaction is aspirated, the plates are washed with 5 × 300 μL wash buffer, and Ellman’s reagent is added. After a 2 hour incubation in the dark on a rotator, the plates are read at 410 nm. Basal cAMP is subtracted from all values. D4R agonists inhibit forskolin-stimulated cAMP formation, and maximal inhibition is defined with 1 μM quinpirole. Data normalized to percent forskolin stimulation are shown in the graph. The maximal effect is normalized to maximal effect of quinpirole in the tables. For antagonists, maximal reversal of inhibition of cAMP formation is defined with 10 μM haloperidol.
In general terms: Cyclic AMP is a second messenger, typically raised through Gs and lowered through Gi signalling.

Structures are written as SMILES.

Sequence of D3R (P35462 whole entry): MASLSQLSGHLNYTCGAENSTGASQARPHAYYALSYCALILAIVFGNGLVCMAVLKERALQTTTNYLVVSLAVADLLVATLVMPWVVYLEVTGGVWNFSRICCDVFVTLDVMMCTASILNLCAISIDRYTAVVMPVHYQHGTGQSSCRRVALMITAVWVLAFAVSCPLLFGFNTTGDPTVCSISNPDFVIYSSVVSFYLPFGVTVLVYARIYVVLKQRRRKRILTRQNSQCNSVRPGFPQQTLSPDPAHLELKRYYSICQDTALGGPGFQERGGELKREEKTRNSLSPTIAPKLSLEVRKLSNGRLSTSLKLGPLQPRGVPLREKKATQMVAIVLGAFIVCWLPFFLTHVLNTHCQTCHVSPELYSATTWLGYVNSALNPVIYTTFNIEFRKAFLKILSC

With `O=C(NCCCCN1CCN(c2cccc(Cl)c2Cl)CC1)C1COCC(c2ccccc2)(c2ccccc2)O1` (stereo not shown) [compound 3, N-(4-(4-(2,3-Dichlorophenyl)piperazin-1-yl)butyl)-6,6-diphenyl-1,4-dioxane-2-carboxamide], the 5-HT1A/D3 on D3R (ratio of Ki values 5-HT1AR/D3R) worked out at 121. The 5-HT2A/D3 at D3R (ratio of Ki values 5-HT2AR/D3R) was 108. Besides, the 5-HT2C/D3 at D3R (ratio of Ki values 5-HT2CR/D3R) amounted to 269. Moreover, the D1/D3 on D3R (ratio of Ki values D1R/D3R) is 185.

Take `O=C(NCCCCN1CCN(c2cccc(Cl)c2Cl)CC1)C1COC(c2ccccc2)(c2ccccc2)CO1` (stereo not shown) [compound 6, N-(4-(4-(2,3-Dichlorophenyl)piperazin-1-yl)butyl)-5,5-diphenyl-1,4-dioxane-2-carboxamide]: on D4R, the midpoint of the response, the EC50, lay at 21.7 ± 8.4 nM; the “% stimul., D4 adenylate cyclase” value turned out to be 76.7%; the “functional behavior at D4R” value is “efficacious 5-HT1AR and D4R agonists with high potency”.

Turning to `O=C(NCCCCN1CCN(c2cccc(Cl)c2Cl)CC1)C1COc2ccccc2O1` (stereo not shown) [compound 9, N-(4-(4-(2,3-Dichlorophenyl)piperazin-1-yl)butyl)-2,3-dihydrobenzo[b][1,4]dioxine-2-carboxamide], on D4R, the EC50 (commonly the concentration giving half of the maximal effect) is 15.3 ± 1.9 nM; the “% stimul., D4 adenylate cyclase” value was 73.1%; the “functional behavior at D4R” value was “efficacious 5-HT1AR and D4R agonists with high potency”.

(Values after PMC8498988, “Scaffold Hybridization Strategy Leads to the Discovery of Dopamine D3 Receptor-Selective or Multitarget Bitopic Ligands Potentially Useful for Central Nervous System Disorders” (ACS Chemical Neuroscience, 2021).)
